Reference: patent US12479834B2, “Phenol compound or salt thereof” (TAIHO PHARMACEUTICAL CO., LTD., priority 2019, dated 2025)

Experiments:
G12C K-Ras4B (1-169) = biological target: T1, G12C K-Ras4B (1-169) (Homo sapiens, UniProt P01116, G12C); test: Binding to KRAS G12C mutant, compound binding rate by LC-MS; settings: final compound concentration 2 μM, 1 μM protein, 2 hours at 25° C.
T1 construct: G12C K-Ras4B (1-169) protein, which was a KRAS G12C mutant; His tag (N, cleaved yes); made in house; host or cells: E. coli BL21 (DE3)
Description: K-Ras4B (1-169) protein was expressed in E. coli strain BL21 (DE3) by synthesizing a nucleotide sequence encoding the amino acid sequence represented by GenPept ID NP_004976 as a sequence optimized for E. coli by use of GeneArt Technology (Life Technologies Corp.) such that the protein was N-terminally His-tagged and fused with a TEV protease recognition sequence (ENLYFQG). The expressed His-tagged K-Ras4B (1-169) was purified through a Ni column, then cleaved at its tag with N-terminally His-tagged TEV protease, and passed through a Ni column again to recover a flow-through fraction, which was further purified by anion-exchange chromatography to obtain the protein. G12C K-Ras4B (1-169) protein, which was a KRAS G12C mutant, was obtained in the same way as in the K-Ras4B(1-169) protein except that glycine at position 12 of the amino acid sequence represented by GenPept ID NP_004976 was mutated to cysteine.
The K-Ras4B (1-169) protein and the G12C K-Ras4B (1-169) protein were mixed and diluted with a buffer solution (1×TBS and 0.1 mM TCEP) to prepare a protein solution containing 1 μM each of the proteins. Each test compound was dissolved at 10 mM in DMSO and further diluted 10-fold with DMSO to make a 1 mM solution. Then, the solution was diluted 5-fold with DMSO to make a 200 μM solution. The 200 μM solution was further diluted 5-fold to make a […] solution. 1 μL of the 40 μM test compound was added to 19 μL of the 1 μM protein solution such that the final compound concentration was 2 μM. The mixture was stored for 2 hours in an incubator of 25° C., and the reaction was terminated by the addition of 80 μL of a 1×TBS solution containing 0.2% formic acid, followed by LC-MS measurement.
The LC-MS measurement was performed by using Xevo G2-S Q-Tof manufactured by Waters Corp., performing reverse-phase chromatography with a desalting column, and obtaining mass spectra of positive ions by electrospray. For the mass spectra, spectra of polyvalent ions were collectively converted to molecular weights by the MaxEnt technique using OpenLynx software, and then, a compound binding rate was obtained from the ratio of […].
The binding rates of test compounds having a final compound concentration of 2 μM for G12C K-Ras4B (1-169) are shown in the table below. The binding rate for G12C K-Ras4B (1-169) is rated “A” for 80% or more, “B” for 60% or more and less than 80%, “C” for 40% or more and less than 60%, “D” for 20% or more and less than 40%, and “E” for less than 20%.

KRAS G12C mutant = biological target: T2, KRAS G12C mutant (Homo sapiens, UniProt P01116, G12C); test: Inhibition of SOS1-mediated nucleotide (GDP-GTP) exchange reaction of KRAS G12C mutant, BODIPY FL GDP fluorescence; type: biochemical; settings: preincubated 25° C. 4 hours with 25 nM KRAS G12C bound with BODIPY FL GDP; SOS1 100 nM, GppNHp 1 μM, 30 minutes
T2 construct: 50 μM G12C K-Ras4B (1-169) protein and 1 mM BODIPY® FL GDP; His tag (N, cleaved yes); made in house; host or cells: E. coli BL21 (DE3)
Description: SOS1 protein was expressed in E. coli strain BL21 (DE3) by synthesizing a nucleotide sequence encoding the amino acid sequence represented by GenPept ID NP_005624 as a sequence optimized for E. coli by use of GeneArt Technology (Life Technologies Corp.) such that the protein was N-terminally His-tagged and fused with a TEV protease recognition sequence (ENLYFQG). The expressed His-tagged SOS1 (564-1049) was purified through a Ni column, then cleaved at its tag with N-terminally His-tagged TEV protease, and passed through a Ni column again to recover a flow-through fraction to obtain the protein.
Each compound was studied for its inhibitory effect on the exchange reaction of GDP into GppNHp in BODIPY® FL bound with the KRAS G12C mutant by fluorescence measurement using the G12C K-Ras4B (1-169) protein and the SOS1 protein.
For the preparation of the KRAS G12C mutant bound with BODIPY® FL GDP, first, 50 μM G12C K-Ras4B (1-169) protein and 1 mM BODIPY® FL GDP (Invitrogen Corp., G22360) were incubated for 1 hour in a buffer solution (20 mM Tris-HCl (pH 7.5), 50 mM NaCl, and 1 mM DTT) in ice in the presence of 2.5 mM EDTA. Then, MgCl2 was added thereto at a final concentration of 10 mM, then the mixture was incubated at room temperature for 30 minutes, and then, the protein was passed through a NAP-5 column for removal of free nucleotides and used for compound evaluation.
For the measurement of the inhibitory activity of compounds against nucleotide exchange reaction, first, the compound of the present invention was serially diluted with DMSO. Subsequently, the serially diluted solution of the compound of the present invention in DMSO (final concentration of DMSO: 5%) and the KRAS G12C mutant (25 nM) bound with BODIPY® FL GDP were added into a reaction buffer solution (20 mM Tris-HCl (pH 7.5), 100 mM NaCl, 1 mM MgCl2, 2 mM DTT, and 0.1% Tween 20), and the mixture was preincubated at 25° C. for 4 hours. Then, Son of Sevenless Homolog 1 (SOS1, amino acid region: 564-1049) and GppNHp (GMPPNP, Jena Bioscience GmbH, NU-401-50) were added thereto at final concentrations of 100 nM and 1 μM, respectively, and the mixture was reacted for 30 minutes. The change in fluorescence intensity of BODIPY® FL (excitation wavelength: 485 nm, fluorescence wavelength: 520 nm) between immediately after the start of reaction and after 30 minutes from the start of reaction was standardized, and then, the compound concentration at which 50% inhibition was achieved was calculated as IC50 (nM) when the signal value for only DMSO was defined as 0% inhibition and the signal value for no addition of GppNHp was defined as 100% inhibition.

binding rate for G12C K-Ras4B (1-169) (G12C K-Ras4B (1-169)) | IC50 (KRAS G12C mutant) [nM] | Compound
B (60% or more and less than 80%) | 205 | C=CC(=O)N1CC(NC(=O)c2cnc(C(O)c3cc(C(C)(C)C)c(Cl)cc3O)n2C)C1 (stereo not drawn) [Example 98, N-(1-Acryloylazetidin-3-yl)-2-((5-(tert-butyl)-4-chloro-2-hydroxyphenyl) (hydroxy)methyl)-1-methyl-1H-imidazole-5-carboxamide]
D (20% or more and less than 40%) | 3900 | C=CC(=O)N1CC(NC(=O)c2ccc(C(C)Nc3cc(C(C)(C)C)c(Cl)cc3O)o2)C1 (stereo not drawn) [Example 79, N-(1-Acryloylazetidin-3-yl)-5-(1-((5-(tert-butyl)-4-chloro-2-hydroxyphenyl)amino)ethyl)furan-2-carboxamide]
A (80% or more) | 39 | C=CC(=O)N1CC(NC(=O)c2cnc(CNc3cc(C(C)(C)C)c(Cl)cc3O)s2)C1 [Example 9, N-(1-Acryloylazetidin-3-yl)-2-(((5-(tert-butyl)-4-chloro-2-hydroxyphenyl)amino)methyl)thiazole-5-carboxamide]
B (60% or more and less than 80%) | 140 | C=CC(=O)N1CC(NC(=O)c2cnc(CNc3cc(C(C)C(F)(F)F)c(Cl)cc3O)n2C)C1 (stereo not drawn) [Example 59, N-(1-Acryloylazetidin-3-yl)-2-(((4-chloro-2-hydroxy-5-(1,1,1-trifluoropropan-2-yl)phenyl)amino)methyl)-1-methyl-1H-imidazole-5-carboxamide]
D (20% or more and less than 40%) | 128 | C=CC(=O)N1CC(NC(=O)c2c(C)nc(C(O)c3cc(C(C)(C)C)c(Cl)cc3O)n2C)C1 (stereo not drawn) [Example 91, N-(1-Acryloylazetidin-3-yl)-2-((5-(tert-butyl)-4-chloro-2-hydroxyphenyl) (hydroxy)methyl)-1,4-dimethyl-1H-imidazole-5-carboxamide]
A (80% or more) | 37 | C=CC(=O)N1CC(NC(=O)c2cnc(CNc3cc(C(C)C)c(Cl)cc3O)n2C)C1 [Example 60, N-(1-Acryloylazetidin-3-yl)-2-(((4-chloro-2-hydroxy-5-isopropylphenyl)amino)methyl)-1-methyl-1H-imidazole-5-carboxamide]
B (60% or more and less than 80%) | 104 | C=CC(=O)N1CC(NC(=O)c2cnc(C(C)Nc3cc(C(C)(C)C)c(Cl)cc3O)n2C)C1 (stereo not drawn) [Example 80, N-(1-Acryloylazetidin-3-yl)-2-(1-((5-(tert-butyl)-4-chloro-2-hydroxyphenyl)amino)ethyl)-1-methyl-1H-imidazole-5-carboxamide]
A (80% or more) | 33 | C=CC(=O)N1CC(NC(=O)c2cnc(CNc3cc(C(C)(C)C)c(C)cc3O)n2C)C1 [Example 68, N-(1-Acryloylazetidin-3-yl)-2-(((5-(tert-butyl)-2-hydroxy-4-methylphenyl)amino)methyl)-1-methyl-1H-imidazole-5-carboxamide]

More lines, now with the values behind:

Compound | binding rate for G12C K-Ras4B (1-169) (G12C K-Ras4B (1-169)) | IC50 (KRAS G12C mutant) [nM]
C=CC(=O)N1CC(N(C)C(=O)c2coc(CNc3cc(C(C)(C)C)c(Cl)cc3O)c2)C1 [Example 33, N-(1-Acryloylazetidin-3-yl)-5-(((5-(tert-butyl)-4-chloro-2-hydroxyphenyl)amino)methyl)-N-methylfuran-3-carboxamide] | E (less than 20%) | 1490
C=CC(=O)N1CC(NC(=O)c2cnc(CNc3cc(C4CC4(F)F)c(Cl)cc3O)n2C)C1 (stereo not drawn) [Example 55, N-(1-Acryloylazetidin-3-yl)-2-(((4-chloro-5-(2,2-difluorocyclopropyl)-2-hydroxyphenyl)amino)methyl)-1-methyl-1H-imidazole-5-carboxamide] | C (40% or more and less than 60%) | 122
C=CC(=O)N1CC[C@@H](N(C)C(=O)c2ccc(CNc3cc(C(C)(C)C)c(Cl)cc3O)o2)C1 [Example 6, (R)—N-(1-Acryloylpyrrolidin-3-yl)-5-(((5-(tert-butyl)-4-chloro-2-hydroxyphenyl)amino)methyl)-N-methylfuran-2-carboxamide] | D (20% or more and less than 40%) | 164
C=CC(=O)N1CC(NC(=O)c2c(C(F)(F)F)nc(CNc3cc(C(C)(C)C)c(C)cc3O)n2C(C)C)C1 [Example 77, N-(1-Acryloylazetidin-3-yl)-2-(((5-(tert-butyl)-2-hydroxy-4-methylphenyl)amino)methyl)-1-isopropyl-4-(trifluoromethyl)-1H-imidazole-5-carboxamide] | D (20% or more and less than 40%) | 240
C=CC(=O)N1CC(N(C)C(=O)c2csc(CNc3cc(C(C)(C)C)c(Cl)cc3O)n2)C1 [Example 32, N-(1-Acryloylazetidin-3-yl)-2-(((5-(tert-butyl)-4-chloro-2-hydroxyphenyl)amino)methyl)-N-methylthiazole-4-carboxamide] | B (60% or more and less than 80%) | 64
C=CC(=O)N1CC(NC(=O)c2cnc(CNc3cc(S(F)(F)(F)(F)F)ccc3O)n2C)C1 [Example 75, N-(1-Acryloylazetidin-3-yl)-2-(((2-hydroxy-5-(pentafluoro-λ6-sulfaneyl)phenyl)amino)methyl)-1-methyl-1H-imidazole-5-carboxamide] | E (less than 20%) | 661
C=CC(=O)N1CC(NC(=O)c2cc(CNc3cc(C(C)(C)C)c(Cl)cc3O)ccn2)C1 [Example 16, N-(1-Acryloylazetidin-3-yl)-4-(((5-(tert-butyl)-4-chloro-2-hydroxyphenyl)amino)methyl)picolinamide] | A (80% or more) | 3010
